Consider four molecules from patent publication US20130267588A1, “HYDROXYTYROSOL ETHERS” (FUNDACIO IMIM, priority 2010, published 2013).

Like-named read-outs stand apart in the source and are kept apart here.

One test deals with male Wistar rats. Nature of the test: Acute intake experiment in animals fasting for 24 hours. It is filed as in vivo, rat. The settings on record: rats fasted 24 hours, food given 30 min after injection, n=8. On the procedure:
All the in vivo experiments were performed using male Wistar rats weighing 200-500 g. The animals were housed in individual cages in a room with controlled temperature (23° C.) and humidity (50%) with a 12/12 light and dark cycle. The animals had access to water and food ad libitum except in specific experimental methods. The animals were manipulated once a day for this two days before the experimental sessions. All the products were dissolved in a mixture of DMSO (5%), Tween 60 (5%)/saline (90%). The in vivo experiments included the analysis of intake and effects on general behavior. None of the assayed compounds altered the general behavior of the animal but some reduced the animal's appetite (FIGS. 1 to 8).
The acute effect on the intake of all the products was tested in animals fasting for 24 hours.
Thirty minutes after injection, previously weighed food was put in the cage. The food was weighed 30, 60, 120 and 240 minutes after starting the test. All the intake experiments were performed with groups of 8 animals (n=8) (FIGS. 1 to 8). […] The compounds (Z)-1-(2-phenylethoxy)octadec-9-ene (Example 3, FIG. 1) and (Z)-1-(2-(3,4-methylenedioxyphenyl)ethoxy)octadec-9-ene (Example 2, FIG. 3) reduced intake by about 25%. All the compounds had long-term effects, the reduction of intake being significant 4 hours after administration.

The target of another test is T1, CB1 receptor (Rattus norvegicus, UniProt P20272).
T1 construct: displace [^3H]; from tissue; host or cells: rat cerebellum membranes
T1 sequence (P20272 whole entry): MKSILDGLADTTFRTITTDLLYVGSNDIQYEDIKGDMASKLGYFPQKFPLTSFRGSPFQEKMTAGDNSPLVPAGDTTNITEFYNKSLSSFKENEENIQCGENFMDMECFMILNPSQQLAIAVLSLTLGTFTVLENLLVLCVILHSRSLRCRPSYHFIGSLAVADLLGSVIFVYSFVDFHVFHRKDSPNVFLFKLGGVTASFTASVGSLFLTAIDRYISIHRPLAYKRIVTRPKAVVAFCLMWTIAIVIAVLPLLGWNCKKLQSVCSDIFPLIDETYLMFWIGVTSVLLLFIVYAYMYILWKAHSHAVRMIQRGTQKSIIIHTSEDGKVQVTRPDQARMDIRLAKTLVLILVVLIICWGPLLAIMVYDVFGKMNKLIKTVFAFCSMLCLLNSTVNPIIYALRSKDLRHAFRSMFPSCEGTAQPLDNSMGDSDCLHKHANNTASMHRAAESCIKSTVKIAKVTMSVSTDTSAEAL
As to the kind of experiment: Ligand-receptor assay for the CB1 receptor, displacement of [3H] SR141716. It is filed as binding. As to conditions: rat cerebellum membranes. On the procedure: The ligand-receptor assay for the CB1 receptor evaluates the capacity of the synthesized compounds to displace [^3H]
The ligand-receptor assay was performed using the CB1 labeled antagonist, [^3H] […] 450 μL of pH-regulating solution A (50 mM Tris pH=7.4 with 0.5% bovine serum albumin (BSA)), 100-200 μg rat cerebellum membranes, the diluted product and the labeled CB1 antagonist, [^3H] […] After incubating for […] at 37° C., the reaction was stopped with 1 mL of pH-regulating solution A. The mixture was centrifuged at 5000 rpm for 5 minutes. The supernatant was discarded and the pellet washed with another 1 mL of pH-regulating solution A, centrifuged and the supernatant one again was discarded. Scintillation liquid was added and the samples were read in a beta particle counter (Liquid Scintillation Analyzer, Tri-Carb 2100 TR, PACKARD, Packard Bioscience Company).

The next test relates to LDL. Nature of the test: Conjugated dienes experiment, copper-induced LDL oxidation. It is filed as biochemical, human. As to conditions: compounds at 0.5, 1 and 3 μM. On the procedure:
Blood from healthy, fasting volunteers is collected in tubes containing 1 g/L of EDTA. The plasma is prepared by centrifugation at 1,000 g and 4° C. for 15 minutes. LDL is isolated by sequential ultracentrifugation. Native LDL is dialyzed by size exclusion chromatography in Sephadex G25 columns (Pharmacia, Uppsala, Sweden), with 2.7 ml of 0.01 mol pH 7.4 phosphate buffer (PB) at 4° C. The apolipoprotein B100 content is determined by immunoturbidimetry (ABX Diagnostics—Montpellier, France).
Dialyzed LDL (final concentration of 0.06 g of Apo-B/L) in PB at a final volume of 150 μL was incubated in a […] ELISA plate (flat bottom, transparent to UV, Corning®) with 10 μL of methanol in the presence or absence (control) of the compounds object of the study. 10 μL of a 100 μM copper sulfate solution (final concentration of […]) are then added. To minimize evaporation during prolonged incubation periods, 10 μL of mineral oil (Sigma-Aldrich) are added on the surface of the reaction mixture. […] The absorbance at 234 nm is continuously monitored every 15 minutes for 24 hours in an Infinite M200 plate reader (TECAN IBERICA, Männedorf, Switzerland). The controls and the samples (containing concentrations of the compounds to be assayed of 0.5, 1 and 3 μM) were evaluated in the same assay in duplicate and each experiment was repeated three times. […]

In the case of `CCCCCCCC/C=C\CCCCCCCCOCCc1ccc2c(c1)OCO2` [Example 2, (Z)-1-(2-(3,4-methylenedioxyphenyl)ethoxy)octadec-9-ene], in the test on male Wistar rats, the “reduction of intake with respect to the control group” value (shortened to “reduction of intake”) is reported as “about 25%”. Moreover, at CB1 receptor, the “CB1 Ki (M)” value is listed as “No affinity” and the “CB1 pKi” value is “No affinity”.

With `CCCCCCCC/C=C\CCCCCCCCOCCc1ccccc1` [Example 3, (Z)-1-(2-phenylethoxy)octadec-9-ene], the “reduction of intake” value in the test on male Wistar rats is reported as “about 25%”. At CB1 receptor, the “CB1 Ki (M)” value is recorded as “No affinity” and the “CB1 pKi” value is reported as “No affinity”.

As for `CCCCC/C=C\C/C=C\CCCCCCCCOCCc1ccc2c(c1)OCO2` [Example 5, (9Z,12Z)-1-(2-(3,4-methylenedioxyphenyl)ethoxy)-octadeca-9,12-diene], the Ki at CB1 receptor (read-out: CB1 Ki) worked out at 22.5 µM.

With `CCCCC/C=C\C/C=C\CCCCCCCCOCCc1ccc(O)c(O)c1` [Example 10, (9Z,12Z)-1-(2-(3,4-dihydroxyphenyl)ethoxy)-octadeca-9,12-diene], in the test on male Wistar rats, the “reduction of intake” value was determined as 50%. In addition, the “LDL antioxidant activity (lag-time until formation of conjugated dienes)” value with LDL is recorded as “activity similar to that of hydroxytyrosol at the three assayed concentrations”. The Ki is 7.49 µM on CB1 receptor (read-out: CB1 Ki) and 7.59 µM on CB1 receptor (read-out: CB1 pKi (converted)).
